Results taken from patent US20250027072A1, “METHODS AND CO[…] TO ENGINEERED CANNABINOID RECEPTORS” (priority 2021, published 2025).

What was measured:
Format in all cases: cell-based
[1] = target: human cannabinoid receptor type II (CB2R) (Homo sapiens, UniProt P34972); assay: cell-based; parameters: Normalized Activity at 1 μM, CB2R; other: PINACA compounds, 1 μM; Normalized Activity at 1 μm, CB2R; other: 5-fluoro PB-22 isomers, 1 μm; other: MFα-CB2R, ST03 sterol strain, pH 5.8; activity against CB2R; other: at 10 nM, dose response; preference at CB2R of ADB-BINACA over AB-PINACA; signaling at CB2R in synthetic cannabinoid screen; fused on or other part: yeast mating factor alpha (MFα) pre-pro leader fused at the N-terminus as a trafficking signal; conditions: for Normalized Activity at 1 μM, CB2R: PINACA compounds; for Normalized Activity at 1 μm, CB2R: 5-fluoro PB-22 isomers
human cannabinoid receptor type II (CB2R) (Homo sapiens, UniProt P34972), sequence (P34972 whole entry, the tested form may be a part): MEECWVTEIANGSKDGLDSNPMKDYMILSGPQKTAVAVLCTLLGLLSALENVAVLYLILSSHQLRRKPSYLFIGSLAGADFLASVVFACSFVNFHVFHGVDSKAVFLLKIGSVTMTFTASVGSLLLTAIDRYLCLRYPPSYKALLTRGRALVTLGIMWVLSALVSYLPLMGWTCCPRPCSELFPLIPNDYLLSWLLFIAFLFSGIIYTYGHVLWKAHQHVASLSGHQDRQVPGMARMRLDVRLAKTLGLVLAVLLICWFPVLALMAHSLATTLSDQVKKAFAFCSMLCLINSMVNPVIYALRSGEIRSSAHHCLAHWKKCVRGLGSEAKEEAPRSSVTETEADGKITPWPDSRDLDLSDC
Procedure: (§1) To efficiently transduce signals from the human machinery to the yeast pathway, the yeast 5 C-terminal residues of the G-alpha gene GPA1 were replaced with the sequence of the Gαi3 human G-alpha variant as previously described (Brown et al. 2000). ZsGreen1 was used to report on the activity of the pathway, integrating it into the genome in place of the pheromone-inducible Fig1 gene (FIG. 14A).
(§2) Yeast colonies were picked and grown overnight to saturation in pH 5.8 SD-His media in a 2.2 mL deep well plate (Axygen) grown in a plate-shaking incubator (30° C., 1000 rpm, 3 mm orbital). In the morning cultures were diluted 1:10 or 1:25 in SD-His media buffered to pH 7.1 with 100 mM MOPSO (unless otherwise specified). Ligands were added to the culture and incubated with shaking for 8 hours. Cells were then washed three times with ice-cold Tris buffer (pH 7) and diluted 1:20 for cytometry. All cytometry was performed on a Sony SA3800 spectral analyzer. Each sample was tested for 10,000 events, and read at a rate of 1,000 events per second. All assays as reported here were filtered only for singlet populations.

[2] = target: T1, human Cannabinoid Receptor 1 (CB1R) (Homo sapiens, UniProt P21554); conditions: for Normalized Activity at 1 μM, CB1R: PINACA compounds; for Normalized Activity at 1 μm, CB1R: 5-fluoro PB-22 isomers; for signaling at CB1R in synthetic cannabinoid screen relative to 100 μM ACEA positive control: compounds at 1 μM; for maximal signaling in CB1R dose response: dose-response curves; for EC50: read-out: EC50 at CB1R, synthetic cannabinoid dose response
T1 construct: syn-prepro (synthetic yeast pre-pro secretion leader) (N); expressed in transfected cells; host or cells: Saccharomyces cerevisiae BY4741-derived strain (ste2, sst2, far1 knocked out); Gpa1-Gαi3 chimera
T1 sequence (P21554 90-472): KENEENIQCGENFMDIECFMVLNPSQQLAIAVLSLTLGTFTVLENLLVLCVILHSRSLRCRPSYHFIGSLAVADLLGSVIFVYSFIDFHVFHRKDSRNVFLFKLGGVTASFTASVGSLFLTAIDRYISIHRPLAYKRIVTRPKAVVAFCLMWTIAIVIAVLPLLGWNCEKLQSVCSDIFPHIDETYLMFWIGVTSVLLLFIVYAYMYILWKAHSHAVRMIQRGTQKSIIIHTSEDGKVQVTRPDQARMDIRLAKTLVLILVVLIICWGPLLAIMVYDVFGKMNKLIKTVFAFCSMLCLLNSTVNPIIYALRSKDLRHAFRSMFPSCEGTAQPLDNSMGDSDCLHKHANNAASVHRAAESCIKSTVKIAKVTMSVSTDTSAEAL

[3] = tested on: human cannabinoid receptor type II (CB2R); assay: cell-based
Procedure: as §1, §2

[4] = tested on: human Cannabinoid Receptor 1 (CB1R)
[5] = syn-prepro-Δ89-CB1R, wild type ergosterol strain

## CCCC(F)Cn1nc(C(=O)NC(C(N)=O)C(C)C)c2ccccc21 (stereo not drawn)
[1]
  Normalized Activity at 1 μM, CB2R: 0.340
[2]
  Normalized Activity at 1 μM, CB1R: 0.632

## CCCCCn1nc(C(=O)NC(C)(C(N)=O)C(C)C)c2ccccc21 (stereo not drawn)
[1]
  Normalized Activity at 1 μM, CB2R: 0.303
[2]
  Normalized Activity at 1 μM, CB1R: 0.810

## CCC(F)CCn1nc(C(=O)NC(C(N)=O)C(C)C)c2ccccc21 (stereo not drawn)
[1]
  Normalized Activity at 1 μM, CB2R: 0.310
[2]
  Normalized Activity at 1 μM, CB1R: 0.700

## CCCCCn1nc(C(=O)N[C@@H](CCCC)C(N)=O)c2ccccc21
[1]
  Normalized Activity at 1 μM, CB2R: 0.460
[2]
  Normalized Activity at 1 μM, CB1R: 0.735

## CC(C)(C)C(NC(=O)c1cn(Cc2ccccc2)c2ccccc12)C(N)=O (stereo not drawn)
[1]
  Normalized Activity at 1 μM, CB2R: 0.255
[2]
  Normalized Activity at 1 μM, CB1R: 0.842

## O=C(Oc1cnc2ccccc2c1)c1cn(CCCCCF)c2ccccc12
[2]
  Normalized Activity at 1 μm, CB1R: 0.530

## O=C(Oc1ccc2ccncc2c1)c1cn(CCCCCF)c2ccccc12
[1]
  Normalized Activity at 1 μm, CB2R: 0.339

## O=C(Oc1cncc2ccccc12)c1cn(CCCCCF)c2ccccc12
[2]
  Normalized Activity at 1 μm, CB1R: 0.570

## O=C(Oc1ccc2cccnc2c1)c1cn(CCCCCF)c2ccccc12
[2]
  Normalized Activity at 1 μm, CB1R: 0.550

## O=C(Oc1cccc2ccncc12)c1cn(CCCCCF)c2ccccc12
[1]
  Normalized Activity at 1 μm, CB2R: 0.771

## CCCC(F)Cn1nc(C(=O)Oc2cccc3cccnc23)c2ccccc21 (stereo not drawn)
[1]
  Normalized Activity at 1 μm, CB2R: 0.582
[2]
  Normalized Activity at 1 μm, CB1R: 0.531

## O=C(Oc1ccc2cnccc2c1)c1cn(CCCCCF)c2ccccc12
[1]
  Normalized Activity at 1 μm, CB2R: 0.331

## O=C(Oc1ccc2ncccc2c1)c1cn(CCCCCF)c2ccccc12
[1]
  Normalized Activity at 1 μm, CB2R: 0.141
[2]
  Normalized Activity at 1 μm, CB1R: 0.500

## CCCCCn1nc(C(=O)N[C@H](C(N)=O)[C@@H](C)CC)c2ccccc21 (single isomer, unassigned)
[1]
  Normalized Activity at 1 μM, CB2R: 0.568
[2]
  Normalized Activity at 1 μM, CB1R: 0.753

## CCC(F)CCn1cc(C(=O)C2C(C)(C)C2(C)C)c2ccccc21 (single isomer, unassigned) [XLR11 N-(3-fluoropentyl) isomer]
[3]; dual biosensor screen at 1 μM
  receptor bias CB2R versus CB1R: CB2R-biased

## CCCC(NC(=O)c1nn(Cc2ccc(F)cc2)c2ccccc12)C(N)=O (single isomer, unassigned; isomer 1) [AB-FUBINACA isomer 1]
[2]
  signaling at CB1R in synthetic cannabinoid screen relative to 100 μM ACEA positive control: greatest activity of all the isomers
  maximal signaling in CB1R dose response: high maximal signaling
[2]; [5]
  EC50: 0.01 nM

## CC(C)(C)C(NC(=O)c1c2ccccc2nn1CCCCCF)C(N)=O (single isomer, unassigned; isomer 2) [5-fluoro ADB-PINACA isomer 2]
[2]; [5]
  EC50 at CB1R, synthetic cannabinoid dose response: low nanomolar range
  EC50: 2.25 nM

## CCC(C)(NC(=O)c1nn(Cc2ccc(F)cc2)c2ccccc12)C(N)=O (single isomer, unassigned; isomer 2) [AB-FUBINACA isomer 2]
[2]
  maximal signaling in CB1R dose response: lower response
[2]; [5]
  EC50: 0.23 nM

## CCC(C(N)=O)N(C)C(=O)c1nn(Cc2ccc(F)cc2)c2ccccc12 (single isomer, unassigned; isomer 5) [AB-FUBINACA isomer 5]
[2]
  signaling at CB1R in synthetic cannabinoid screen relative to 100 μM ACEA positive control: least GPCR activation
  maximal signaling in CB1R dose response: lower response
[2]; [5]
  EC50: 15.9 nM

## O=C(Oc1ccnc2ccccc12)c1cn(CCCCCF)c2ccccc12 [5-fluoro PB-22 4-hydroxyquinoline isomer]
[4]
  factor by which CB1 is favored over CB2: ~3

## O=C(Oc1cccc2cnccc12)c1cn(CCCCCF)c2ccccc12 [5-fluoro PB-22 5-hydroxyisoquinoline isomer]
[1]; MFα-CB2R, ST03 sterol strain, pH 5.8, read-out: EC50 at CB2R, dose response
  EC50: 216 nM
[3]; normalized activity at 1 μM, Table 3
  fold by which CB2 is favored over CB1: roughly 2 fold
